Assay results: patent publication US11590117B2, “Treatment of a hematologic malignancy with 2-(4-chlorophenyl)-n-((2-(2,6-dioxopiperidin-3-yl)-1-oxoisoindolin-5-yl)methyl)-2,2-difluoroacetamide” (priority 2016, dated 2023)
Where two headings read alike, the source gives them in different places.

Tests used:
Assay type in all cases: cell-based, human
HNT-34 cells = experiment: Compound 1 washout assay (glutarimide washout, viability at 72 hours); conditions: viability after 72 hours
Experimental: Compound 1 Washout Assay: For washout experiments, AML cell lines were plated in U-bottom 96-well plates at a density of 60,000 cells per well. All cells were treated at time zero (t=0) with Compound 1, then, at each time point, cells were resuspended in washout media containing glutarimide at 1000-fold excess over the compound working concentration (eg, 100 μM glutarimide for washout of 100 nM compound treatment). At the end of the incubation period, the plates were centrifuged for 3 minutes at 200 g, supernatant was removed, and cells were resuspended in 100 μL/well 1× Annexin V binding buffer containing Annexin V (2.5 μL/well) and 7-AAD (5 μL/well). Flow cytometry was performed using a BD FACSarray instrument and results were quantified using FlowJo software. At the same time, CTG was added to the 96-(black) well plates and processed as described above in the cell proliferation assay.
In order to determine at what time point Compound 1 causes AML cell lines to commit to apoptosis, washout experiments were performed at different time points, and the cell viability was assessed after 72 hours (see schematic in FIG. 30 A). Compound 1 (100 nM) irreversibly committed the cells to apoptosis within 8 to 16 hours of treatment (FIG. 30 B). Washing out 100 nM Compound 1 between 1 and 4 hours reduced the potency (right-shift in the EC50 curve) by ˜10-fold.

HNT-34 = experiment: CellTiter-Glo (CTG) cell proliferation assay, 72 hours; conditions: for IC50: Homo sapiens
Experimental: (§1) Preparation of Solutions of Test Article: Compounds were plated into black 384-well plates (Corning Inc.) to a final DMSO volume of 0.1% assuming a maximal volume of 50 μL. A 10-point dose response starting at 10 μM with a 1:3 dilution was printed in duplicate by acoustic dispense using the EDC ATS-100 platform.
(§2) Cell Proliferation Assays: The effect of Compound 1 on the proliferation/viability of the hematological cell lines (Table 1 Table, Table 2 and Table 3), THLE-2, or PBMCs was assessed after 72 hours incubation using CTG (Promega), according to manufacturer's instructions. Hematological cell lines were dispensed into compound plates by a Multidrop™ Combi Reagent Dispenser (Thermo Scientific, Waltham, Mass.) at a concentration of 0.1 to 0.3×10^6 cells per mL in a 50 μL total volume. THLE-2 cells were seeded out at 1000 cells per well in 50 μL volume and incubated for 72 hours. At 72 hours, 25 μL per well of CTG was dispensed by a Multidrop™ Combi Reagent Dispenser and adenosine triphosphate (ATP) release by viable cells was measured as relative luminescence units after 30 minutes using the Envision platform.
(§3) Proliferation was assessed using the CellTitre-Glo® assay. Results for cultures incubated with Compound 1 were normalized to results for control cultures for each cell line. The IC50 for inhibition of cell growth by Compound 1 was determined for each cell line using ActivityBase software.
(§4) Cultures of 11 different AML cell lines were incubated 72 hours with Compound 1 at concentrations of 0.5 nM to 10 μM. Proliferation was assessed using the CellTitre-Glo® assay. Results for cultures incubated with Compound 1 were normalized to results for control cultures for each cell line. Inhibition of cell growth was also determined in THLE-2 cells at Compound 1 concentrations of 0.1 nM to 100 μM and in PBMCs at Compound 1 concentrations of 0.5 nM to […]. The Compound 1 therapeutic window was calculated using area under the curve (AUC; Activity Area [Barretina et al, Nature (2012) 483603-607] measurements (in arbitrary units) as determined using GraphPad Prism software for plots of cell proliferation vs concentration and dividing the AUC for the immortalized (but nontumorigenic) human THLE-2 hepatocyte cell line or PBMCs by the AUC for the AML cell line.

KG-1 = experiment: as above
Experimental: as §1, §2, §3, §4

U-937 = experiment: as above
Experimental: as §1, §2, §3, §4

HL-60 = experiment: as above
Experimental: as §1, §2, §3, §4

KG-1a = experiment: as above
Experimental: as §1, §2, §3, §4

OCI-AML2 = experiment: as above
Experimental: as §1, §2, §3, §4

[1] = HNT-34, AUC PBMCs divided by AUC AML cell line
[2] = HNT-34, AUC THLE-2 divided by AUC AML cell line
[3] = KG-1, AUC PBMCs divided by AUC AML cell line
[4] = KG-1, AUC THLE-2 divided by AUC AML cell line
[5] = U-937, AUC PBMCs divided by AUC AML cell line
[6] = U-937, AUC THLE-2 divided by AUC AML cell line
[7] = HL-60, AUC PBMCs divided by AUC AML cell line
[8] = HL-60, AUC THLE-2 divided by AUC AML cell line
[9] = AUC PBMCs divided by AUC AML cell line
[10] = AUC THLE-2 divided by AUC AML cell line
[11] = OCI-AML2, AUC PBMCs divided by AUC AML cell line
[12] = OCI-AML2, AUC THLE-2 divided by AUC AML cell line

Compound: O=C1CCC(N2Cc3cc(CNC(=O)C(F)(F)c4ccc(Cl)cc4)ccc3C2=O)C(=O)N1 (stereo not drawn) [Compound 1, 2-(4-chlorophenyl)-N-((2-(2,6-dioxopiperidin-3-yl)-1-oxoisoindolin-5-yl)methyl)-2,2-difluoroacetamide]
- reduction of potency on washout (HNT-34 cells; washout at 8 to 16 hours): ~4 fold
- reduction of potency (right-shift in the EC50 curve) on washout (HNT-34 cells; washout between 1 and 4 hours): ~10 fold
- Therapeutic Window Method 1 As Compared with PBMCs (HNT-34; [1]): 36
- Therapeutic Window Method 2 As Compared with PBMCs (HNT-34; [1]): 21
- Therapeutic Window Method 1 As Compared with THLE-2 Cells (HNT-34; [2]): 57
- Therapeutic Window Method 2 As Compared with THLE-2 Cells (HNT-34; [2]): 79.5
- AUC (HNT-34; HNT-34, Activity Area of proliferation vs concentration, 72 hours, 0.5 nM to 10 μM): 6.9 arbitrary units
- IC50 (HNT-34; HNT-34, 72 h, read-out: Proliferation IC50 (mean ± SD)): 3 ± 1 nM
- IC50 (HNT-34; HNT-34 as sensitive positive control cell line in PBMC comparison, 72 hours, read-out: CTG IC50): 2 nM
- IC50 (KG-1; Homo sapiens, KG-1, 72 h, read-out: Proliferation IC50 (mean ± SD)): 15 ± 6 nM
- Therapeutic Window Method 1 As Compared with PBMCs (KG-1; [3]): 3.8
- Therapeutic Window Method 2 As Compared with PBMCs (KG-1; [3]): 2.2
- Therapeutic Window Method 1 As Compared with THLE-2 Cells (KG-1; [4]): 6.0
- Therapeutic Window Method 2 As Compared with THLE-2 Cells (KG-1; [4]): 8.3
- AUC (KG-1; KG-1, Activity Area of proliferation vs concentration, 72 hours, 0.5 nM to 10 μM): 65.8 arbitrary units
- IC50 (U-937; Homo sapiens, U-937, 72 h, read-out: Proliferation IC50 (mean ± SD)): 74 ± 25 nM
- Therapeutic Window Method 1 As Compared with PBMCs (U-937; [5]): 6.3
- Therapeutic Window Method 2 As Compared with PBMCs (U-937; [5]): 3.6
- Therapeutic Window Method 1 As Compared with THLE-2 Cells (U-937; [6]): 9.8
- Therapeutic Window Method 2 As Compared with THLE-2 Cells (U-937; [6]): 13.7
- AUC (U-937; U-937, Activity Area of proliferation vs concentration, 72 hours, 0.5 nM to 10 μM): 40.0 arbitrary units
- Therapeutic Window Method 1 As Compared with PBMCs (HL-60; [7]): 11
- Therapeutic Window Method 2 As Compared with PBMCs (HL-60; [7]): 6.1
- Therapeutic Window Method 1 As Compared with THLE-2 Cells (HL-60; [8]): 17
- Therapeutic Window Method 2 As Compared with THLE-2 Cells (HL-60; [8]): 23.2
- AUC (HL-60; HL-60, Activity Area of proliferation vs concentration, 72 hours, 0.5 nM to 10 μM): 23.7 arbitrary units
- IC50 (HL-60; Homo sapiens, HL-60, 72 h, read-out: Proliferation IC50 (mean ± SD)): 20 ± 10 nM
- Therapeutic Window Method 1 As Compared with PBMCs (KG-1a; [9]): 2.6
- Therapeutic Window Method 2 As Compared with PBMCs (KG-1a; [9]): 1.5
- Therapeutic Window Method 1 As Compared with THLE-2 Cells (KG-1a; [10]): 4.1
- Therapeutic Window Method 2 As Compared with THLE-2 Cells (KG-1a; [10]): 5.7
- AUC (KG-1a; Activity Area of proliferation vs concentration, 72 hours, 0.5 nM to 10 μM): 96.9 arbitrary units
- IC50 (KG-1a; Homo sapiens, 72 h, read-out: Proliferation IC50 (mean ± SD)): 21 ± 10 nM
- IC50 (OCI-AML2; Homo sapiens, OCI-AML2, 72 h, read-out: Proliferation IC50 (mean ± SD)): 57 ± 21 nM
- Therapeutic Window Method 1 As Compared with PBMCs (OCI-AML2; [11]): 14
- Therapeutic Window Method 2 As Compared with PBMCs (OCI-AML2; [11]): 8.1
- Therapeutic Window Method 1 As Compared with THLE-2 Cells (OCI-AML2; [12]): 22
- Therapeutic Window Method 2 As Compared with THLE-2 Cells (OCI-AML2; [12]): 30.7
- AUC (OCI-AML2; OCI-AML2, Activity Area of proliferation vs concentration, 72 hours, 0.5 nM to 10 μM): 17.9 arbitrary units
